These results are taken from patent US20030153611A1, “1,3-Diarylprop-2-en-1-ones, compositions containing them and use thereof” (AVENTIS PHARMA S.A., priority 2001, published 2003).

For one assay, the target named is T1, Tubulin (Sus scrofa, UniProt P02550+P02554).
T1 construct: Tubulin is purified from pig brains according to the published methods; from tissue; host or cells: pig brain
The assay can be described thus: Assessment of the inhibition of tubulin polymerization (turbidimetry). In kind it is biochemical, pig. The settings on record: tubulin 10 μM, turbidity at 350 nm, 37° C. As for the experimental part:
Tubulin is purified from pig brains according to the published methods (Shelanski et al., 1973, Proc. Natl, Acad. Sci. USA, 70, 765-768. Weingarten et al., 1975, Proc. Natl, Acad. Sci. USA, 72, 1858-1862). Briefly, the brains are ground and centrifuged in an extraction buffer. The tubulin, contained in the extract supernatant, is subjected to two successive cycles of polymerization at 37° C. and depolymerization at 4° C., before being separated from the MAPs (Microtubule Associated Proteins) by chromatography on a phosphocellulose P11 column (Whatman). The tubulin thus isolated is more than 95% pure. It is stored in a buffer known as RB/2 30% glycerol, the composition of which is MES-NaOH [2-(N-morpholino)ethanesulfonic acid] 50 mM, pH 6.8; MgCl2 0.25 mM; EGTA 0.5 mM; 30% glycerol (v/v), GTP (guanosine 5′-triphosphate) 0.2 mM.
The polymerization of the tubulin into microtubules is monitored by turbidimetry as follows; the tubulin is adjusted to a concentration of 10 μM (1 mg/ml) in the RB/2 30% glycerol buffer, to which is added 1 mM GTP and 6 mM MgCl2. The polymerization is initiated by increasing the temperature from 6° C. to 37° C. in a cuvette with a 1 cm optical pathlength, placed in a Uvikon 931 spectrophotometer (Kontron) equipped with a thermostatically-regulated cuvette holder. The increase in the turbidity of the solution is monitored at 350 nm.
The products are dissolved at 10 mM in DMSO and added at variable concentrations (0.5 to 10 μM) to the tubulin solution before polymerization. The IC50 value is defined as the concentration of product which inhibits 50% of the rate of polymerization. A product whose IC50 value is less than or equal to 3 μM is considered as very active.

Another assay relates to HDMEC. Description: Inhibition of cell proliferation, HDMEC. In kind it is cell-based. The note with it: Homo sapiens.
The test system of the next assay is HeLa cells. Description: Inhibition of proliferation of HeLa cells ([14C]-thymidine incorporation). The assay is classed as cell-based. The settings on record: Homo sapiens, incubation for 48 hours, read-out: Inhibition of cell proliferation IC50 HeLa. As for the experimental part:
The proliferation of HeLa cells is assessed by measuring the incorporation of [^14C]-thymidine in the following way. The HeLa cells (epithelial tumor cells of human origin) are cultured in a DMEM medium (Gibco) which contains 10% fetal calf serum and antibiotics (1% penicillin, 1% streptomycin). To carry out the proliferation test, the cells are inoculated into 96-well cytostar microplates (Amersham), at a rate of 5 000 cells per well. [^14C]-thymidine (0.1 μCi/well) and the products to be assessed are then added. Variable concentrations of products up to 10 μM are used; the DMSO (solvent used to dissolve the products) should not exceed 0.5% in the medium. After incubation for 48 hours at 37° C., the radioactivity incorporated into the cells is measured by counting the plate in a TRI-LUX counter (Wallac). The IC50 value is defined as the concentration of product which reduces the radioactivity by 50% relative to an untreated control. A product whose IC50 value is less than 1 μM is considered as cytotoxic.
A general note: Incorporation of labelled thymidine or its analogues reports DNA synthesis.

The next assay deals with HDMEC cells. The assay can be described thus: Detachment effect on HDMEC endothelial cells. The assay is classed as cell-based, Human. The settings on record: treatment for two hours.
Source text: A test to determine the detachment of endothelial cells was established in order to select the products on the basis of their “in vitro” activity. This test for determining the endothelial cell detachment is characterized in that the endothelial cells, inoculated in plates which are coated at the bottom with a binder, e.g., chosen from gelatin, fibronectin or vitronectin, after culturing, are supplemented with a medium containing the test compound, and the cells are then labeled with a fluorescent substance, the cells which become detached are removed by washing and the fluorescence of the remaining cells is counted in a fluorimeter.
This test consists in measuring the detachment of endothelial cells cultured on substrates based on a binder, e.g., chosen from fibronectin, vitronectin and gelatin. One day after inoculating the cells in plates containing 96 wells, for example, the culture medium is replaced with a medium containing the test compound in the absence of serum. The same preparation is prepared six times at three different concentrations ([…]) and the control without addition of antivascular product is prepared six times. After treatment for two hours with the test substance, the cells are labeled with calcein-AM (1.6 μg/ml) in a culture medium supplemented with 0.1% BSA. The cells which become detached are removed by washing with the culture medium containing 0.1% bovine serum albumin; 100 μl of medium are added to each well. The fluorescence of the remaining cells is counted in a fluorimeter. The data obtained are expressed relative to the control (untreated cells).
(§1) The assessment of the detachment of the endothelial cells in vitro is determined in the following way. HDMEC cells (Human Dermal Microvascular Endothelial Cells, Promocell, c-122102) are cultured in an ECGM-MV medium containing 5% fetal calf serum, growth factors (EGF 10 ng/ml, hydrocortisone 1 μg/ml, 0.4% growth supplement with heparin) and antibiotics (amphotericin 50 ng/ml, gentamicin 50 μg/ml). For the detachment test, the HDMECs are inoculated at a rate of 5 000 cells in clear-bottomed 96-well plates (Costar) precoated with fibronectin (10 μg/ml) or vitronectin (1 μg/ml) or gelatin. Twenty-four hours later, the culture medium is replaced with 0.1% BSA ECGM-MV medium containing the indicated products. The test concentrations are 0.1-0.3 and 1 μM for each product. After treatment for two hours, the cells are labeled for 1 hour with calcein (1.6 μg/ml, Molecular Probes) in 0.1% BSA ECGM-MV medium. The detached cells are then removed by washing with 0.1% BSA ECGM-MV medium; 100 μl of medium are added to each well. The fluorescence of the cells which remain attached to the substratum of the well is counted using a fluorimeter, Spectrafluor Plus (Tecan, excitation at 485 nm, and emission at 535 nm). The data are the average of six different samples and are expressed as a percentage of the control (untreated cells).
A cell detachment effect of greater than or equal to 15% is considered as significant.
as §1, with “(amphotericine” for “(amphotericin”, “The detached cells are then removed by washing with 0.1% BSA ECGM-MV medium; 100 μl of medium are added to each well. The fluorescence of the cells which remain attached to the substratum of the well is counted using a fluorimeter, Spectrafluor Plus (Tecan, excitation at 485 nm, and emission at 535 nm). The data are the average of six different samples and are expressed as a percentage of the control (untreated cells).” left out

Structures can show the parent of a compound that is named as a salt. Where only a bound is given, the exact number is not on record here.

T1 sequence (P02550 whole entry): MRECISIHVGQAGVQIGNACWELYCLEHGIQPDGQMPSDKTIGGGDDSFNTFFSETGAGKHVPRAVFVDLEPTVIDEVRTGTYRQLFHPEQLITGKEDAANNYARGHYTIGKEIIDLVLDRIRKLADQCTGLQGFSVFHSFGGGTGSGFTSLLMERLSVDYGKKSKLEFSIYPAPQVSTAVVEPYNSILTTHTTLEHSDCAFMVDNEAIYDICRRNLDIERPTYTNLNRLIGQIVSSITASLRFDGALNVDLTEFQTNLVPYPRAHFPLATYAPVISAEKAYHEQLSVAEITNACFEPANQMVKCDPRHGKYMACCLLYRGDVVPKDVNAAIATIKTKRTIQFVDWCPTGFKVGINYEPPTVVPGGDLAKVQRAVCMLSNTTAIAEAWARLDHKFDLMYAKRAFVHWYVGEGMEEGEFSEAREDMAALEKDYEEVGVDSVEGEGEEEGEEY
T1 sequence (P02554 whole entry): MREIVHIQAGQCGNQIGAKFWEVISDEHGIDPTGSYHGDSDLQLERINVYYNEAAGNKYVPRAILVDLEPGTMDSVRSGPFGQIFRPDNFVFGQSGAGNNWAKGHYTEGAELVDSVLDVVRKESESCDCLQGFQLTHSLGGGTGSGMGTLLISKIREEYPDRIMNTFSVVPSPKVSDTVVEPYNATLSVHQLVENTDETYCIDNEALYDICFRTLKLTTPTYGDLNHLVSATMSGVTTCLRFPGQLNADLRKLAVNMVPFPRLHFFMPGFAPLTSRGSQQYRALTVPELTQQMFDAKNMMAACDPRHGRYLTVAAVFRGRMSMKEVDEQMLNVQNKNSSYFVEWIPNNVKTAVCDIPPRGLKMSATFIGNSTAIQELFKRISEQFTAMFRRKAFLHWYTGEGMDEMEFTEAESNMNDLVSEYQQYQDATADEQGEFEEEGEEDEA

On Tubulin, `COc1cc(C(=O)/C(C)=C/c2ccc3c(ccn3C)c2)cc2c1OCO2` [Example 16, E-2-Methyl-3-(1-methyl-1-H-indol-5-yl)-1-(3-methoxy-4,5-methylenedioxyphenyl)propenone] had an IC50 of 500 nM.

With `COc1cc(C(=NO)/C(C)=C/c2ccc3c(ccn3C)c2)cc(OC)c1OC` (mixture of isomers) [Example 7, E-2-Methyl-3-(1-methyl-1-H-indol-5-yl)-1-(3,4,5-trimethoxyphenyl)propenoneoxime], the IC50 on Tubulin is 2000 nM; in the assay with HDMEC, 300 to 500 nM.

In the case of `COc1cc(C(=N/O)/C(C)=C/c2ccc3c(ccn3C)c2)cc(OC)c1OC` [Example 9, E-2-Methyl-3-(1-methyl-1-H-indol-5-yl)-1-(3,4,5-trimethoxyphenyl)propenone E-oxime], on Tubulin, the IC50 came to 3500 nM.

Take `COc1ccc(/C=C(\C)C(=O)c2cc(OC)c(OC)c(OC)c2)cc1NC(=O)[C@@H]1CCCN1C` [Example 12, 1-Methylpyrrolidine-2-carboxylic acid {2-methoxy-5-[2-methyl-3-oxo-3-(3,4,5-trimethoxyphenyl)propenyl]phenyl}amide hydrochloride]: the IC50 with HDMEC amounted to 320 nM.

`COc1cc(C(=O)/C(C)=C/c2ccc3c(ccn3CO)c2)cc(OC)c1OC` [Example 21, E-2-Methyl-3-(1-hydroxymethyl-1-H-indol-5-yl)-1-(3,4,5-trimethoxyphenyl)propenone] registered an IC50 against Tubulin of 500 nM.

Consider `COc1cc(/C=C(\C)C(=O)c2cc(OC)c(OC)c(OC)c2)ccc1N` [Example 2, E-3-(4-Amino-3-methoxyphenyl)-2-methyl-1-(3,4,5-trimethoxyphenyl)propenone], for which the IC50 in the assay on HeLa cells is 39 to 104 nM. In addition, in the assay on HDMEC cells, the “Percentage of detachment of HDMEC cells induced with the compound at a concentration of 0.1 μM” value (“Percentage of detachment … of 0.1 μM” for short) was 16-21%, the “Percentage of detachment of HDMEC cells induced with the compound at a concentration of 0.3 μM” value (“Percentage of detachment … of 0.3 μM” for short) was 17-32% and the “Percentage of detachment of HDMEC cells induced with the compound at a concentration of 1 μM” value (“Percentage of detachment … of 1 μM” for short) is 31-49%. Besides, the IC50 against Tubulin came out at 2500 nM. This compound had an IC50 in the assay on HDMEC of 1.9 to 4 nM.

With `COc1ccc(/C=C(\C)C(=O)c2cc(OC)c(OC)c(OC)c2)cc1N` [Example 1, E-3-(3-Amino-4-methoxyphenyl)-2-methyl-1-(3,4,5-trimethoxyphenyl)propenone], the IC50 in the assay with HeLa cells fell in the range of 3.6 to 4.3 nM. In the assay on HDMEC cells, the “Percentage of detachment … of 0.1 μM” value was 21-36%, the “Percentage of detachment … of 0.3 μM” value is listed as 18-38% and the “Percentage of detachment … of 1 μM” value is on record as 37-42%. At Tubulin, this compound yielded an IC50 of 300 nM. In the assay on HDMEC, this compound returned an IC50 of 2.5 to 3.2 nM.

For `COc1ccc(/C=C(\C)C(=O)c2cc(OC)c(OC)c(OC)c2)cc1NC(=O)[C@@H](N)C(C)C` [Example 15, (S)-2-Amino-3-methylbutanoic acid {2-methoxy-5-[2-methyl-3-oxo-3-(3,4,5-trimethoxy-phenyl)propenyl]phenyl}amide hydrochloride], the IC50 is 9000 nM at Tubulin and 30 to 60 nM in the assay with HDMEC.

Turning to `COc1cc(C(=N\O)/C(C)=C/c2ccc3c(ccn3C)c2)cc(OC)c1OC` [Example 8, E-2-Methyl-3-(1-methyl-1-H-indol-5-yl)-1-(3,4,5-trimethoxyphenyl)propenone Z-oxime], the IC50 at Tubulin was found to be 800 nM.

For the compound `COc1ccc(/C=C(\C)C(=O)c2cc(OC)c(OC)c(OC)c2)cc1NC(=O)[C@@H](N)CCCNC(=N)N[N+](=O)[O-]` [Example 11, 2-Amino-5-[3-(1-nitroguanidino)]-pentanoic acid {2-methoxy-5-[2-methyl-3-oxo-3-(3,4,5-trimethoxy-phenyl)propenyl]phenyl}amide hydrochloride], in the assay on HDMEC, the IC50 is 400 nM.

In turn, `COc1ccc(/C=C(\Br)C(=O)c2cc(OC)c(OC)c(OC)c2)cc1N` [Example 4, E-3-(3-Amino-4-methoxyphenyl)-2-bromo-1-(3,4,5-trimethoxyphenyl)propenone] registered an IC50 at Tubulin of 600 nM.

In the case of `COc1cc(C(=O)/C(C)=C/c2ccc3[nH]ccc3c2)cc(OC)c1OC` [Example 19, E-2-Methyl-3-(1-H-indol-5-yl)-1-(3,4,5-trimethoxyphenyl)propenone], the IC50 against Tubulin is 800 nM.

For the compound `COc1ccc(OC)c(C(=O)/C(C)=C/c2ccc(OC)c(N)c2)c1.Cl` [Example 3, E-3-(3-Amino-4-methoxyphenyl)-2-methyl-1-(2,5-dimethoxyphenyl)propenone hydrochloride], the IC50 in the assay with HeLa cells was less than 19 nM; against Tubulin, 500 nM; in the assay on HDMEC, less than 19 nM. For the same compound, the “Percentage of detachment … of 0.1 μM” value in the assay with HDMEC cells is 31%. Also, the “Percentage of detachment … of 0.3 μM” value in the assay with HDMEC cells was found to be 37%. For the same compound, in the assay with HDMEC cells, the “Percentage of detachment … of 1 μM” value amounted to 34%.

For `COc1cc(C(=O)/C(C)=C/c2ccc3c(ccn3CCN(C)C)c2)cc(OC)c1OC` [Example 20, E-2-Methyl-3-[1-(2-dimethylaminoethyl)-1-H-indol-5-yl]-1-(3,4,5-trimethoxyphenyl)propenone hydrochloride], the IC50 on Tubulin was determined as 2000 nM.
